Source: patent EP4644384A1 (Shanghai Lichun Biotech Co., Ltd., priority 2023, dated 2024)

Tests used:
CYP11A1 [1] = target: T1, CYP11A1 (Homo sapiens, UniProt P05108); experiment: Testosterone synthesis inhibition in NCI-H295R cells (testosterone ELISA of culture supernatant); format: cell-based; details: 24 hours incubation, testosterone in culture supernatant by ELISA
T1 construct: host or cells: NCI-H295R human adrenocortical cancer cells
T1 sequence (P05108 40-521): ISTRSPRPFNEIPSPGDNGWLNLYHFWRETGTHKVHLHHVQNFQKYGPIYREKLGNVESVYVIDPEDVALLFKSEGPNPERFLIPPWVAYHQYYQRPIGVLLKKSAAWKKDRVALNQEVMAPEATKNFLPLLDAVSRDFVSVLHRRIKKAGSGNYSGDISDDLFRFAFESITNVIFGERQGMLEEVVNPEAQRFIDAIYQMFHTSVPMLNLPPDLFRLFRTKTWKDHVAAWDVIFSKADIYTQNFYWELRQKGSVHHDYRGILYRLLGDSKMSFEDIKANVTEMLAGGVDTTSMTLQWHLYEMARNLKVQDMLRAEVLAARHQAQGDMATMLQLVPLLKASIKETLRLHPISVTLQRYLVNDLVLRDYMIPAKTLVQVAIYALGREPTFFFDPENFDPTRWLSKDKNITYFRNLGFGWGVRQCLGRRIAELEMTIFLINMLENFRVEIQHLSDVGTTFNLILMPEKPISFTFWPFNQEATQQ
Experimental: The ability of different compounds to inhibit testosterone biosynthesis was determined by detecting the concentration of testosterone (Abnova testosterone ELISA kit, KA6502) using enzyme-linked immunosorbent assay (ELISA), so as to detect the ability of the compounds to inhibit CYP11A1. In the experiment, similarly, the human adrenocortical cancer cell line NCI-H295R (Procell, CL-0399) was also used as an enzyme source. The compounds were added during NCI-H295R cell culture. After incubation, the concentration of testosterone in the culture supernatant was determined.
95 µl of NCI-H295R cells were taken and cultured overnight with a specialized cell culture medium (Procell, CM-0399) in a 96-well culture plate in a cell incubator at 37°C and 5% CO2. 5 µl/well of a DMSO (Sigma, D8418) solution of the compounds to be tested at different concentrations was then added, followed by continued incubation for 24 hours. The final concentrations of the compounds to be tested were 1000 nM, 333.33 nM, 111.11 nM, 37.04 nM, 12.35 nM, 4.12 nM, 1.37 nM, 0.46 nM, and 0 nM. After the incubation was complete, the cells were centrifuged, 80 µl/well of the cell culture supernatant was obtained, and the concentration of testosterone therein was determined by ELISA method. During ELISA detection, a testosterone standard was used to generate a standard curve. The experiment was carried out with replicate wells. The ELISA well plate had been coated with an anti-testosterone monoclonal antibody. In ELISA plate strips, 25 µl/well of the culture supernatant or standard solution or reference substance was added, followed by 200 µl of a testosterone-HRP complex solution, and the plate was incubated for 1 hour at room temperature on a plate shaker (QILINBEIER, QB-9002) at 200 rpm. Then, the plate was washed three times with a cleaning solution, with 300 µl each time, and patted dry on absorbent paper. 200 µl of a TMB substrate was added. The plate was incubated on the plate shaker for 15 minutes at room temperature, and 100 µl of a stop solution was then added. The absorbance was measured at 450 nm by a microplate reader (PerkinElmer, 2105). The IC50 value was calculated by using GraphPad Prism software. [formula]

CYP11A1 [2] = target: T1, CYP11A1; experiment: Pregnenolone synthesis inhibition in NCI-H295R cells (pregnenolone ELISA of culture supernatant); format: cell-based; details: 24 hours incubation, pregnenolone in culture supernatant by ELISA
Excerpt: Conversion of cholesterol into pregnenolone is a first rate-limiting step in the synthesis of all steroid hormones in vertebrates. This conversion reaction involves a two-step continuous monooxygenation reaction catalyzed by the unique cytochrome P450scc (CYP11A) to produce C22-hydroxycholesterol and C20,C22-dihydroxycholesterol in order, followed by CYP11A1-catalyzed breakage of a C20-C22 carbon-carbon single bond in C20,C22-dihydroxycholesterol to produce one molecule of pregnenolone and one molecule of 4-methylvaleraldehyde. Therefore, the inhibitory effect of a compound on CYP11A1 was identified by detecting the ability of the compound to inhibit pregnenolone synthesis.
The ability of different compounds to inhibit pregnenolone biosynthesis was determined by detecting the concentration of pregnenolone (Abnova pregnenolone ELISA kit, KA1912) using enzyme-linked immunosorbent assay (ELISA), so as to detect the ability of the compounds to inhibit CYP11A1. […] In order to determine the half-maximal inhibitory concentrations (IC50) of CYP11A1 inhibition by different compounds, the compounds were added during NCI-H295R cell culture, and after incubation, the concentration of pregnenolone in the culture supernatant was determined.
95 µl of NCI-H295R cells were taken and cultured overnight with a specialized cell culture medium (Procell, CM-0399) in a 96-well culture plate in a cell incubator at 37°C and 5% CO2. 5 µl/well of a DMSO (Sigma, D8418) solution of the compounds to be tested at different concentrations was then added, followed by continued incubation for 24 hours. The final concentrations of the compounds to be tested were 1000 nM, 333.33 nM, 111.11 nM, 37.04 nM, 12.35 nM, 4.12 nM, 1.37 nM, 0.46 nM, and 0 nM. After the incubation was complete, the cells were centrifuged, 80 µl/well of the cell culture supernatant was obtained and 1 : 8 diluted with the cell culture medium, and the concentration of pregnenolone therein was then determined by ELISA method. During ELISA detection, a pregnenolone standard was used to generate a standard curve. The experiment was carried out with replicate wells. The ELISA well plate had been coated with an anti-pregnenolone rabbit polyclonal antibody. In ELISA plate strips, 50 µl/well of the diluted culture supernatant or standard solution or reference substance was added, followed by 100 µl of a pregnenolone-HRP complex solution, and the plate was incubated for 1 hour at room temperature on a plate shaker (QILINBEIER, QB-9002) at 200 rpm. Then, the plate was washed three times with a cleaning solution, with 300 µl each time, and patted dry on absorbent paper. 150 µl of a TMB substrate was added. The plate was incubated on the plate shaker for 10-15 minutes at room temperature, and 50 µl of a stop solution was then added. The absorbance was measured at 450 nm by a microplate reader (PerkinElmer, 2105). The IC50 value was calculated by using GraphPad Prism software. [formula]

[3] = Pharmacokinetic evaluation in ICR mice after intragastric administration (plasma, LC/MS/MS); format: in vivo; details: mouse, po, male ICR mice, i.g., 20 mg/kg; for AUC(0-t): read-out: Area under the curve AUC0-t; for half-life: read-out: Half-life T1/2 (converted); for Cmax: read-out: Plasma concentration Cmax
Experimental: Taking ICR mice as test animals, the drug concentration in plasma of ICR mice was determined by LC/MS/MS method at different times after intragastric administration (i.g.) with the compound of the present disclosure. The pharmacokinetic behavior of the compound of the present disclosure in ICR mice was studied and the pharmacokinetic characteristics thereof were evaluated.
27 male ICR mice were taken and randomly divided into three groups. The mice were provided by JOINN Laboratories (Suzhou) Co., Ltd. Before administration, the mice were fasted overnight for at least 12 hours. During the fasting and experiment, the drinking water was normal saline.
A certain amount of the compound to be tested was taken, and the test sample prepared with a final concentration of 2 mg/mL was taken for oral administration. The preparation solvent was 0.5% Tween 80 in a 0.5% methylcellulose aqueous solution. After the preparation was complete, a 1N hydrochloric acid aqueous solution was added for adjustment to a clear solution (pH 4-5).
The dosage was 20.0 mg/kg and the dosage volume was 10.0 ml/kg.
At 15 min, 30 min, 1 h, 2 h, 4 h, 6 h, 8 h, 10 h, and 24 h after administration, at least 0.2 mL was taken from the vein (3 animals at each time point) and placed in an EDTA-K2 anticoagulation test tube. The blood sample was collected and then placed in a labeled ice-water bath centrifuge tube, and the plasma was quickly separated by centrifugation. The centrifugation conditions were as follows: 4000 revolutions/minute, 10 minutes, and 4°C. The plasma was stored at -40°C or lower for later testing. Feed supply was resumed 4 hours after administration.
Determination of the content of the compound to be detected in the plasma of ICR mice: After the plasma sample was thawed at room temperature, 50 µL was taken and added to 300 µL of (200 ng/mL, acetonitrile, terfenadine) internal standard, the mixture was vortexed and uniformly mixed for 1 min and then centrifuged at 4°C at 15400 g for 10 min. The supernatant was taken and injected for LC/MS/MS analysis.
The main pharmacokinetic parameters, such as AUC, Cmax and t1/2, were calculated by non-compartmental analysis (NCA) method using WinNonlin software.

SMILES | IC50 (CYP11A1 [1]) [nM] | IC50 (CYP11A1 [2]) [nM] | also measured
CCn1c(CN2Cc3ccccc3C2)ccc(OCC2CCN(S(=O)(=O)O)CC2)c1=O [Compound 31, 4-(((1-ethyl-6-(isoindolin-2-ylmethyl)-2-oxo-1,2-dihydropyridin-3-yl)oxy)methyl)piperidine-1-sulfonic acid] | > 1000 | – | –
CS(=O)(=O)N1CCC(COc2coc(CN3Cc4ccccc4C3)cc2=O)CC1 [Comparative Example 1, reference compound] | – | – | AUC(0-t) [3]: 4330 ng·h/mL; half-life [3]: 1.87 h; Cmax [3]: 7950 ng/mL
[2H]C([2H])([2H])n1c(CN2Cc3ccc(C(F)(F)F)cc3C2)ccc(OCC2CCN(S(=O)(=O)C3CC3)CC2)c1=O [Compound 19, 3-((1-(cyclopropylsulfonyl)piperidine-4-yl)methoxy)-1-(methyl-d3)-6-((5-(trifluoromethyl)isoindolin-2-yl)methyl)pyridin-2(1H)-one] | – | 7.8 | –
[2H]C([2H])([2H])n1c(CN2Cc3ccccc3C2)ccc(OCC2CCN(S(C)(=O)=O)CC2)c1=O [Compound 17, 6-(isoindolin-2-ylmethyl)-1-(methyl-d3)-3-((1-(methylsulfonyl)piperidine-4-yl)methoxy)pyridin-2(1H)-one] | – | 3.76 | –
CCn1c(CN2Cc3ccccc3C2)ccc(OCC2CCN(S(=O)(=O)NC)CC2)c1=O [Compound 29, 4-(((1-ethyl-6-(isoindolin-2-ylmethyl)-2-oxo-1,2-dihydropyridin-3-yl)oxy)methyl)-N-methylpiperidine-1-sulfonamide] | – | 14.8 | –
[2H]C([2H])([2H])n1c(CN2Cc3ccc(C(F)(F)F)cc3C2)ccc(OCC2CCN(S(C)(=O)=O)CC2)c1=O [Compound 14, 1-(methyl-d3)-3-((1-(methylsulfonyl)piperidine-4-yl)methoxy)-6-((5-(trifluoromethyl)isoindolin-2-yl)methyl)pyridin-2(1H)-one] | – | 4.75 | –
Cn1c(CN2Cc3ccc(F)cc3C2)ccc(OCC2CCN(S(=O)(=O)C3COC3)CC2)c1=O [Compound 12, 6-((5-fluoroisoindolin-2-yl)methyl)-1-methyl-3-((1-(oxetan-3-ylsulfonyl)piperidine-4-yl)methoxy)pyridin-2(1H)-one] | – | 3.57 | –
[2H]C([2H])([2H])n1c(CN2Cc3ccc(F)cc3C2)ccc(OCC2CCN(S(C)(=O)=O)CC2)c1=O [Compound 24, 6-((5-fluoroisoindolin-2-yl)methyl)-1-(methyl-d3)-3-((1-(methylsulfonyl)piperidine-4-yl)methoxy)pyridin-2(1H)-one] | – | 4.86 | –

More lines, main results first:

IC50 (CYP11A1 [1]) [nM] | IC50 (CYP11A1 [2]) [nM] | SMILES | also measured
2.45 | 0.7 | CCn1c(CN2Cc3ccccc3C2)ccc(OCC2CCN(S(=O)(=O)C3CC3)CC2)c1=O [Compound 26, 3-((1-(cyclopropylsulfonyl)piperidine-4-yl)methoxy)-1-ethyl-6-(isoindolin-2-ylmethyl)pyridin-2(1H)-one] | –
7.02 | 1.18 | CCn1c(CN2Cc3ccccc3C2)ccc(OCC2CCN(S(N)(=O)=O)CC2)c1=O [Compound 28, 4-(((1-ethyl-6-(isoindolin-2-ylmethyl)-2-oxo-1,2-dihydropyridin-3-yl)oxy)methyl)piperidine-1-sulfonamide] | AUC(0-t) [3]: 13600 ng·h/mL; half-life [3]: 1.22 h; Cmax [3]: 5440 ng/mL
4.04 | 0.648 | CCn1c(CN2Cc3ccccc3C2)ccc(OCC2CCN(S(=O)(=O)NS(N)(=O)=O)CC2)c1=O [Compound 30, 4-(((1-ethyl-6-(isoindolin-2-ylmethyl)-2-oxo-1,2-dihydropyridin-3-yl)oxy)methyl)-N-sulfamoylpiperidine-1-sulfonamide] | –
40.2 | 1.03 | [2H]C([2H])([2H])n1c(CN2Cc3ccccc3C2)ccc(OCC2CCN(S(=O)(=O)C(F)(F)F)CC2)c1=O [Compound 16, 6-(isoindolin-2-ylmethyl)-1-(methyl-d3)-3-((1-((trifluoromethyl)sulfonyl)piperidine-4-yl)methoxy)pyridin-2(1H)-one] | –
3.78 | 1.56 | CCn1c(CN2Cc3ccccc3C2)ccc(OCC2CCN(S(C)(=O)=O)CC2)c1=O [Compound 25, 1-ethyl-6-(isoindolin-2-ylmethyl)-3-((1-(methylsulfonyl)piperidine-4-yl)methoxy)pyridin-2(1H)-one] | –
– | 1.94 | [2H]C([2H])([2H])n1c(CN2Cc3ccc(F)cc3C2)ccc(OCC2CCN(S(=O)(=O)C3CC3)CC2)c1=O [Compound 20] | –
